Reference: paper PMC8347307, “Preclinical Bioavailability, Tissue Distribution, and Protein Binding Studies of Erinacine A, a Bioactive Compound from Hericium erinaceus Mycelia Using Validated LC-MS/MS Method” (Molecules, 2021)
Where “and” joins values, the source holds several entries; their conditions need not be identical. Equal entries are not always repeated. Where two headings read alike, the source gives them in different places.

How the values were obtained:
[1] = tested on: nerve growth factor (NGF); parameters: method as in doi:10.1016/S0040-4039(00)76760-8; details: in vitro; cited from earlier work
[2] = rat, in vivo, iv, 5 mg/kg
DLD-1 xenografts = tested on: DLD-1 xenografts; parameters: method as in doi:10.1016/j.jff.2015.12.031, PMID 31680958; details: nude mice; cited from earlier work
[3] = tested on: DLD-1 colorectal adenocarcinoma cells; parameters: method as in doi:10.1016/j.jff.2015.12.031, PMID 31680958; details: in vitro; cited from earlier work
rat plasma = test: Protein binding in plasma by rapid equilibrium dialysis; format: in vitro ADME, Sprague-Dawley rats
Experimental: (§1) Then, the protein binding of erinacine A in the plasma and diluted (4×) tissue homogenates (brain, heart, lung, liver, kidney, stomach, large intestine, and small intestine) was determined by rapid equilibrium dialysis devices with 8000 Da molecular weight cut-off (#89809, Thermo Fisher Scientific, Waltham, MA, USA) according to manufacturer’s guidelines. In brief, the stock solution of erinacine A prepared in methanol was spiked into blank plasma and tissues to yield a final concentration of 200 ng/mL. Two hundred microliter aliquot of spiked samples were then dialysed against 350 µL aliquot of isotonic phosphate buffered saline at 37 °C on an orbital shaker at 250 rpm for 4 h. The resulting sample and buffer dialysates were removed from the chambers, matched with an equal volume of opposite blank matrix, and analyzed by LC-MS/MS. The protein binding of erinacine A is determined by the following Equations (1) and (2):% Free = (concentration at buffer chamber/concentration at sample chamber) × 100%(1) % Bound = 100% − % Free(2)

[4] = Excretion study, feces and urine, after single oral administration; format: in vivo, Sprague-Dawley rats
Experimental: […] Feces were freeze-dried and grinded before mixing with equal volume of internal standard 2,4,5-TMBA (final concentration 25 ng/mL) and 300 μL of ethyl acetate. Urines were mixed with equal volume of internal standard 2,4,5-TMBA (final concentration 25 ng/mL) and 300 μL of ethyl acetate. The mixture was vortexed and centrifuged at 13,845× g for 3 min. The supernatant was removed and the residue was reconstituted with isovolumetric acetonitrile for LC-MS/MS analysis.

[5] = tested on: insoluble β amyloid and C-terminal fragment of amyloid precursor protein; parameters: method as in PMID 29463001; details: cited from earlier work
[6] = tested on: nerve growth factor (NGF); parameters: method as in doi:10.1016/j.nutres.2005.06.001; details: rats, 8 mg/kg BW for 5 weeks from birth; cited from earlier work
[7] = tested on: diluted (4×) tissue homogenates; test: Protein binding in diluted (4×) tissue homogenates by rapid equilibrium dialysis; format: in vitro ADME, Sprague-Dawley rats; details: calculated from protein binding assay with equation of ref 36
Experimental: as §1

[8] = as above; format: in vitro ADME, Sprague-Dawley rats; details: Sprague-Dawley, rat, 200 ng/mL, 37 °C, 4 h
Experimental: as §1

[9] = tested on: transient focal cerebral ischemia; parameters: method as in PMID 25167134; details: rat, intraperitoneal 1 mg/kg during the 5 days before onset of ischemia; cited from earlier work
[10] = Tissue distribution study after single oral administration; format: in vivo, Sprague-Dawley rats; details: for Tmax / concentration at 4 h: Sprague-Dawley, rat
Experimental: The homogenates (100 μL) were then mixed with equal volume of internal standard 2,4,5-TMBA (final concentration 25 ng/mL) and 300 μL of ethyl acetate. The mixture was vortexed and centrifuged at 13,845× g for 3 min. The supernatant was removed and the residue was reconstituted with isovolumetric acetonitrile for LC-MS/MS analysis.

[11] = Stability in plasma and tissues at 37 °C for 4 h; format: in vitro ADME, Sprague-Dawley rats; details: data not shown
[12] = Pharmacokinetic study, erinacine A in rat plasma after oral and intravenous administration; format: in vivo, Sprague-Dawley rats
Experimental: Analysis of erinacine A concentration in samples was conducted by Agilent 1100 series HPLC system (Agilent, Waldbronn, Germany) equipped with a G1376A capillary pump and a G1313A autosampler. Chromatographic separation was carried out in an Agilent Eclipse XDB-C18 column (3.5 µm, 4.6 × 100 mm) at 25 °C. The mobile phase consists of water (A) and acetonitrile (B) with gradient elution program as follows: 0 min, 70% B; 0–5 min, 70–100% B; 5–8 min, 100% B; 8–8.1 min, 100–70% B; 8.1–11 min, 70% B. The flow rate was 0.35 mL/min and injection volume was 10 μL. Mass spectrometric detection was conducted on an API 3000 triple quadrupole instrument (Applied Biosystems, Vaughan, ON, Canada) in multiple reaction monitoring (MRM) mode with parameters as follows: nebulizer gas, 10 psi; collision gas, 2 psi; curtain gas, 7 psi; source voltage, 4.5 kV; source temperature, 275 °C. A turbo ionspray electrospray ionization (ESI) interface in positive ionization mode was used (Applied Biosystem, Foster City, CA, USA). The specific precursor to product ion transitions is [M+H] 433 → 301 for erinacine A and 197 → 169 for 2,4,5-TMBA (internal standard). Data analysis was performed with Analyst 1.4.2 software (Applied Biosystems, Concord, ON, Canada).
Before intravenous administration, animals were anesthetized with Avertin (2,2,2-Tribromoethanol, 0.071 M). Blood was collected into heparinized microtubes at scheduled time points and centrifuged at 2404× g for 10 min. The plasma (100 μL) was then mixed with equal volume of internal standard 2,4,5-TMBA (final concentration 25 ng/mL) and 300 μL of ethyl acetate. The mixture was vortexed and centrifuged at 13,845× g for 3 min. The supernatant was removed and the residue was reconstituted with isovolumetric acetonitrile for LC-MS/MS analysis. All animal procedures were approved by the Animal Care and Use Committee of Shih Chien University (IACUC#10405).
All experimental data were presented as mean ± standard deviation (mean ± SD). Maximal plasma concentration (Cmax), and time taken to achieve maximal plasma concentration (Tmax), half-life (T1/2), and area under the plasma concentration − time curve (AUC) were assessed on each animal using the software of WinNonlin (Pharsight Corp., Mountain View, CA, USA) by the non-compartmental model. Applying the pharmacokinetic data of oral administration (po) and intravenous administration (iv), the absolute bioavailability of erinacine A was calculated as [(AUCpo × Doseiv)/(AUCiv × Dosepo)] × 100%.

[13] = parameters: method as in PMID 31022946; details: rats, cited from earlier work
[14] = 0–4 h after oral mycelia extract 2.381 g/kg BW
[15] = collected for 24 h, comparison with ref 22
[16] = unchanged erinacine A, cumulative
[17] = male, Sprague-Dawley, iv, rat plasma, I.V. erinacine A 5 mg/kg
[18] = male, Sprague-Dawley, po, rat plasma, P.O. mycelia extract 2.381 g/kg BW (equivalent to 50 mg/kg erinacine A)
[19] = oral mycelia powder equivalent to 50 mg/kg BW erinacine S

## CC(C)C1=C2C3=CC=C(C=O)C[C@H](O[C@@H]4OC[C@@H](O)[C@H](O)[C@H]4O)[C@]3(C)CC[C@@]2(C)CC1 [erinacine A]
[1]
  Nerve growth factor (NGF) stimulation: stimulated nerve growth factor (NGF) in vitro
[2]
  Toxicity signs: no toxicity signs were observed
DLD-1 xenografts
  Growth of DLD-1 xenografts: inhibited
[3]
  Proliferation of DLD-1 cells: inhibited the proliferation
Rat plasma; 200 ng/mL, 37 °C, 4 h equilibrium dialysis, n = 3
  Percent free in plasma: 84.00 ± 2.01%
Rat plasma; 37 °C up to 4 h, preliminary study, data not shown
  Nonspecific binding with the plasma or tissues: negligible
[4]; [14]
  Feces Concentration: 1.533 ± 2.625 µg/g
  Urine Concentration: 0.248 µg/mL and 0.248 ± 0.210 µg/mL
[4]; 4–8 h
  Feces Concentration: 81.853 ± 99.919 µg/g
  Urine Concentration: 0.118 ± 0.103 µg/mL
[4]; 8–12 h
  Feces Concentration: 271.237 µg/g and 271.237 ± 404.357 µg/g
  Urine Concentration: 0.059 ± 0.043 µg/mL
[4]; 12–24 h
  Feces Concentration: 122.824 ± 198.611 µg/g
  Urine Concentration: 0.055 ± 0.066 µg/mL
[4]; 24–36 h
  Feces Concentration: 4.475 ± 6.477 µg/g
  Urine Concentration: 0.021 ± 0.037 µg/mL
[4]; 36–48 h
  Feces Concentration: 0.062 ± 0.099 µg/g
  Urine Concentration: 0.016 ± 0.018 µg/mL
[4]; [15]
  Total amount of unchanged compound in feces relative to erinacine S: more than 20 times
  Total amount of unchanged compound in urine relative to erinacine S: > 2 times
[4]; unchanged erinacine A
  Cumulative fecal excretion, % of administered dose: 2.823%
  Cumulative urinary excretion, % of administered dose: 0.017%
[4]; [16]
  Total Amount excreted in feces: 428.379 ± 368.502 µg
  Total Amount excreted in urine: 2.604 ± 2.149 µg
[5]
  Reduction of insoluble β amyloid and C-terminal fragment of amyloid precursor protein: could reduce
[6]
  NGF content in hippocampus and locus coeruleus: increased NGF content
[7]
  Unbound brain-to-plasma concentration ratio: close to unity
[8]; diluted (4×) brain homogenate, brain homogenate, highest, read-out: Binding with the brain (% bound) (converted)
  fraction unbound at 4 h, 200 ng/mL: 0.711
[8]; diluted (4×) stomach homogenate, stomach homogenate, lowest, read-out: Binding with the stomach (% bound) (converted)
  fraction unbound at 4 h, 200 ng/mL: 0.883
[9]
  Levels of acute inflammatory cytokines and ischemia-injury-induced neuronal cell death: significantly reduced
[10]; brain, oral mycelia extract 2.381 g/kg BW, read-out: Time of peak concentration in brain
  Tmax: 8 h
[10]; heart, 4 h after oral mycelia extract 2.381 g/kg BW, read-out: Concentration in heart
  concentration at 4 h: 1110 ± 264 ng/g
[10]; kidney, 4 h after oral mycelia extract 2.381 g/kg BW, read-out: Concentration in kidney
  concentration at 4 h: 1280 ± 438 ng/g
[10]; large intestine, 4 h after oral mycelia extract 2.381 g/kg BW, read-out: Concentration in large intestine
  concentration at 4 h: 726 ± 336 ng/g
[10]; liver, 4 h after oral mycelia extract 2.381 g/kg BW, read-out: Concentration in liver
  concentration at 4 h: 2830 ± 641 ng/g
[10]; lung, 4 h after oral mycelia extract 2.381 g/kg BW, read-out: Concentration in lung
  concentration at 4 h: 1180 ± 339 ng/g
[10]; small intestine, 4 h after oral mycelia extract 2.381 g/kg BW, read-out: Concentration in small intestine
  concentration at 4 h: 25400 ± 20400 ng/g
[10]; stomach, 4 h after oral mycelia extract 2.381 g/kg BW (50 mg/kg erinacine A), read-out: Concentration in stomach
  concentration at 4 h: 56500 ± 27600 ng/g
[10]; oral mycelia extract 2.381 g/kg BW, read-out: Time of peak concentration in stomach, small intestine, large intestine, liver, heart, lung and kidney
  Tmax: 4 h
[10]; eight hours after oral mycelia extract 2.381 g/kg BW
  Maximum concentration in brain: 0.205 ± 0.079 µg/g
[10]; oral mycelia extract 2.381 g/kg BW
  Detectability in tissues at the end of 24 h: still detectable in GI tract, heart, and liver
[10]; rats, oral mycelia extract
  Blood-brain barrier penetration: can penetrate the blood-brain barrier of rats by the means of passive diffusion
[11]
  Stability in plasma and tissues: no degradation was observed
[12]; [17]
  AUC: 3120 ng·h/mL
  Cmax: 4530 ± 3420 ng/mL
  half-life: 0.0728 ± 0.0758 h
[12]; male, Sprague-Dawley, po, rat plasma, P.O. H. erinaceus mycelia extract 2.381 g/kg BW (equivalent to 50 mg/kg BW erinacine A), n = 6
  Tmax: 6 h
[12]; [18]
  AUC: 7620 ng·h/mL
  Cmax: 1400 ± 1140 ng/mL
  half-life: 8.19 ± 1.86 h
[12]; male, Sprague-Dawley, rat, plasma, 2.381 g/kg, oral, at 90 min, read-out: Plasma concentration, first peak
  concentration at 90 min: 640 ng/mL
[12]; male, Sprague-Dawley, rat, plasma, 2.381 g/kg, oral, at 150 min, read-out: Plasma concentration, second peak
  concentration at 150 min: 735 ng/mL
[12]; male, Sprague-Dawley, rat, plasma, 2.381 g/kg, oral, at 360 min, read-out: Plasma concentration, third peak
  concentration at 360 min: 1250 ng/mL
[12]; male, Sprague-Dawley, rat, plasma, rats, [(AUCpo × Doseiv)/(AUCiv × Dosepo)] × 100%, po 50 mg/kg equivalent, iv 5 mg/kg, read-out: Absolute Bioavailability
  bioavailability: 24.4%
[12]; oral mycelia powder equivalent to 50 mg/kg BW erinacine A
  Earliest detection in plasma after oral administration: 1 min

## CC(C)C1=C2[C@H]3CCC4=C(O)C(=O)[C@@]5(O)CO[C@H]6O[C@@H]([C@@H]4[C@]65O)[C@]3(C)CC[C@@]2(C)CC1 [erinacine S]
[5]
  Reduction of insoluble β amyloid and C-terminal fragment of amyloid precursor protein: not
[13]; [19]
  Maximum plasma concentration: 0.73 µg/mL
  Time to reach maximum plasma concentration: 270.00 min
[13]
  Absolute bioavailability: 15.13%
